Entries after “also recorded” stand apart in the source; their conditions may differ. Where two headings read alike, the source gives them in different places.

Results on 3 molecules are retold here after publication PMC10650714, “Double Attack to Oxidative Stress in Neurodegenerative Disorders: MAO-B and Nrf2 as Elected Targets” (Molecules, 2023).

The target of one test is T1, recombinant hMAO-A (Homo sapiens, UniProt P21397).
T1 construct: purchased Fluka-Sigma-Aldrich s.r.l; (Italy); host or cells: Baculovirus infected BT1 cells
T1 sequence (P21397 1-527): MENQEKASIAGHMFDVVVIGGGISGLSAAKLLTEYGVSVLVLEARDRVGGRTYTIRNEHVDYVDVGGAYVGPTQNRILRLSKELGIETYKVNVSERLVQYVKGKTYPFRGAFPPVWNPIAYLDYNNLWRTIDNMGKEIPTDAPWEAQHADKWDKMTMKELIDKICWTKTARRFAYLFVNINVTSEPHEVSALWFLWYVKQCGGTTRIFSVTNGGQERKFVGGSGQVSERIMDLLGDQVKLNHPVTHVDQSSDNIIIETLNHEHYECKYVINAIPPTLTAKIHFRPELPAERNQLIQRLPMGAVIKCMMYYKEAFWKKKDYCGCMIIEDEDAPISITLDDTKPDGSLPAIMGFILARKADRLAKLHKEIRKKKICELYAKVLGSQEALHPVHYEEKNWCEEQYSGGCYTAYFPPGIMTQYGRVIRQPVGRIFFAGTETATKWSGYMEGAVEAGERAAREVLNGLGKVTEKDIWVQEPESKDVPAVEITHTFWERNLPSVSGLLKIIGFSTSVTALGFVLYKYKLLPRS
The test is described as follows: hMAO-A activity assay (kynuramine, fluorimetric). Type of test: biochemical. On the procedure: Human recombinant hMAO-A and hMAO-B expressed in Baculovirus infected BT1 cells (5 mg/mL) and horseradish peroxidases were purchased from Fluka-Sigma-Aldrich s.r.l. (Italy). A Cary Eclipse fluorimeter (Varian Inc., Palo Alto, CA, USA) was used for fluorescence measurements. […] At first, the peroxidase-coupled continuous assay that detect the H2O2 generation rate was considered. It uses the Amplex Red reagent as the fluorogenic substrate for horseradish peroxidase.
By applying this method, hMAO activity assays were performed in K/Pi 0.1 M, EDTA 1 mM (total volume: 200 μL; pH 7.4, T = 37 °C), in the presence and in absence of various concentrations of the different compounds (0.2–20 μM and 2–50 μM in the case of hMAO–B and hMAO-A, respectively).
MAOs stock solutions were diluted with assay buffer in the presence or absence of the tested compound to obtain a final concentration of 0.005 mg/mL for MAO-A and 0.010 mg/mL for MAO-B; then, kynuramine (10–300 μM final concentration) was added to the assay solution. After 45–60 min of incubation at 37 °C, the reaction was stopped by the addition of 2 M NaOH (80 μL) and 480 μL of distilled water. Kynuramine deaminated by MAO spontaneously cyclizes to provide 4-hydroxyquinoline, the amount of which was determined by the fluorescence intensity of the peak of its emission spectra (λexc = 330 nm and λem 330–530 nm). Then, the rate of reaction was calculated using a specific calibration curve (in the presence of the same amount of the tested compound) built with the standard 4-hydroxyquinoline.
Under these experimental conditions, the Michaelis–Menten equation for rate of reaction, can be simplified as follows: V ≈ (Vmax/KM) [E]0[S]0 [49]. In the presence of an inhibitor, one or both the kinetic parameters, KM and Vmax, might be affected by its presence, depending on the inhibition mechanism. In particular, in the presence of a reversible inhibitor, both the kinetic parameters could be affected, and the apparent kinetic parameter would then become: KM I = KM,0 (1 + [I]/Ki)/(1 + [I]/(αKi)), and VmaxI = Vmax0/(1 + [I]/(αKi)), where α is the factor indicating how much the dissociation constant of the enzyme-substrate-I complex is different from that of the enzyme–I complex (also named Ki). Consequently, the ratio of the initial rate of reaction in the absence (Vo) and in the presence (VI) of the tested compound (Vo/VI) can be simplified to the ratio of (Vmax/KM)o/(Vmax/KM)I ≈ (1 + [I]/Ki).
To study the mechanism of inhibition, the steady-state kinetic parameters (Vmax and Km) of MAO-A and MAO-B were determined by performing experiments at different substrate concentrations and in the absence and presence of different concentrations of the tested compound. Vmax and Km were calculated by fitting the Michaelis–Menten equation to the experimental data (initial rate of reactions vs. substrate concentrations), with Sigma Plot software, version 9.0 (Jandel Scientific, San Rafael, CA, USA).

The test system of test [1] is ROS production in HepG2 cells. The test is described as follows: Intracellular ROS generation rate (DCF-DA). The format is cell-based, human. The following applies: 5 µM, 30 min; for ROS generation rate (oxidation rate of DCF): both in the presence and absence of antimycin A (10 µM); for effect on antimycin A-induced ROS: antimycin A 10 µM. The method, then: Thus, on the basis of the hMAO-B inhibitory potency and on the Nrf2 nuclear translocation results, the most promising compounds 2 and 3 were chosen for the evaluation of their antioxidant activity in the human hepatic HepG2 cells, a valuable cellular system to assess antioxidant properties of the compounds [43, 44]. CAPE and pioglitazone were also tested as reference compounds. HepG2 cells were pre-loaded with dichlorofluorescein diacetate (DCF-DA), a fluorescent probe to detect ROS generation. […] Immediately, antimycin A (10 µM), an inhibitor of the complex III of the mitochondrial electron transport chain, was also added as an ROS inducer. The oxidation rate of DCF, that is, the generation rate of ROS, was detected for 30 min, and for each sample, the corresponding control was also run.
HepG2 cells (human hepatocellular carcinoma) were purchased from the American Type Culture Collection (ATCC HB-8065). Cells were grown in MEM (M0894, Merck Life Sciences S.r.l., Milan, Italy) supplemented with 2.2 g/L NaHCO3 (S5761, Merck Life Sciences S.r.l., Milan, Italy), 100 U/mL penicillin, 100 μg/mL streptomycin and 0.25 μg/mL amphotericin B (A5955, Merck Life Sciences S.r.l., Milan, Italy) and 10% foetal calf serum (F7524, Merck Life Sciences S.r.l., Milan, Italy). Cells were cultured at 37 °C in a humidified atmosphere incubator containing 5% carbon dioxide in air.
The intracellular production of ROS was detected via a fluorometric method using 2′,7′-dichlorofluorescein diacetate (D6883, Merck Life Sciences S.r.l., Milan, Italy) as probe. HepG2 cells (6 × 10^3/well) were seeded into a 96-well culture plate in 200 µL of a complete growth medium and incubated for 48 h in standard conditions. The medium was then removed, and cells were washed with 5 mM of PBS–glucose. Then, cells were loaded with 10 μM of 2′,7′-dichlorofluorescein diacetate in 5 mM of PBS–glucose at 37 °C in the dark for 20 min, washed with 5 mM of PBS–glucose, treated with the test compounds at indicated concentrations in 5 mM of PBS–glucose and then analysed. Fluorescence intensity was recorded for 30 min at λemx = 485 nm and λem = 527 nm, using a Victor X3 Multilabel plate reader (Perkin Elmer). The rate of ROS generation was calculated relative to untreated cells (controls) after subtraction of autofluorescence value. Results were presented as the mean values of at least three independent experiments performed with six replicates.

Where [2] appears, read: kynuramine [S] = 10 µM, pH 7.4, 37 °C, mean ± S.D., read-out: hMAO-A Ki.

As to `O=C(/C=C/c1ccc(O)c(O)c1)OCCc1ccccc1` [CAPE, caffeic acid phenethyl ester, reference compound], the Ki (usually a dissociation constant, usually derived from enzyme kinetics or from competition with a known ligand) on recombinant hMAO-A stood at 12 ± 2 µM. For the same molecule, in test [1], the “ROS generation rate (oxidation rate of DCF)” value (from here on “ROS generation rate”) is “strongly reducing the oxidation rate of DCF” and the “effect on antimycin A-induced ROS” value is given as “almost abolish the effect of antimycin A stimulus”.

For `O=C(/C=C/c1ccc(O)c(O)c1)Oc1ccc(CC2SC(=O)NC2=O)cc1` (centres unmarked) [Compound 2, 4-((2,4-Dioxothiazolidin-5-yl)methyl)phenyl (E)-3-(3,4-Dihydroxyphenyl)acrylate], the inhibition constant Ki on recombinant hMAO-A (setting [2]) amounted to 35 ± 4 µM. Further, in test [1], the “ROS generation rate” value is reported as “highest antioxidant potency; also recorded: significantly reduced cellular ROS content” and the “effect on antimycin A-induced ROS” value is reported as “almost abolish the effect of antimycin A stimulus”.

As for `CCc1ccc(CCOc2ccc(CC3SC(=O)NC3=O)cc2)nc1` (centres unmarked) [Pioglitazone, reference compound], the Ki on recombinant hMAO-A (setting [2]) was above 100 µM. Further, the “ROS generation rate” value in test [1] was “did not show any effect on the ROS generation rate”.
